{
  "source": "patent EP3431088A1",
  "about": "“MNTBAP FOR USE IN INDUCING A TRANSIENT IMMUNE TOLERANCE” (priority 2017, dated 2019)",
  "key": {"[1]": {"test_system": "transgene-specific CD8^+ and CD4^+ T-cell responses", "test": "IM rAAV gene transfer: transgene-specific T-cell responses by IFN-γ ELISPOT", "format": "in vivo, C57BL/6 mice", "conditions": "vs PBS", "method": "(§1) MnTBAP (Calbiochem, San Diego, USA or Enzo Life Sciences, Farmingdale, USA) is dissolved in 75 mM NaOH to constitute a 20 mM stock solution. MnTBAP is dissolved in the complete medium, used for in vitro treatment, containing RPMI-1640 supplemented with 10% heat-inactivated fetal calf serum, 100 U/ml penicillin/streptomycin, 2 mM glutamax and 50 µM β-mercaptoethanol β-ME). Hypertonic medium, used to block clathrin dependent endocytosis, is complete medium supplemented with 0.45 M sucrose. For in vivo treatment, the stock solution is diluted with PBS and administered at 80 mg/kg intraperitoneally daily during five days. Control animals are injected with equivalent volume of PBS.\nIntramuscular (IM) injection: Two hours post first intraperitoneal (IP) injection of MnTBAP, mice are anesthetized by IP injection of xylazine (10 mg/kg) and ketamine (100 mg/kg) and 25 µl of a rAAV2/1 CMV SGCA HY viral preparation containing 2.5.10^9 vg is injected in the left tibialis anterior muscle (TA). Controls are injected with PBS. […] Spleens are harvested to analyze transgene-specific T cell response.\nSpleens are harvested to analyze the cellular immune anti-transgene response by T-cell cytokine response assay. Multiscreen-HA Assay System 96-well Filtration plates (Merck) are coated overnight with 2.5 µg/ml of anti-mouse IFN-γ purified mAb (eBiosciences) at 4°C, washed, and then blocked with RPMI 1640 medium (Life Technologies, Saint-Aubin, France) supplemented with 10% heat inactivated fetal bovine serum (FCS), 100U/ml penicillin/streptomycin (Thermo Fisher Scientific) and 2mM GlutaMAXTM-I (Life technologies) for 2 hours at 37°C. Plates are washed three times with RPMI 1640 medium without FCS. […] Spots are counted using an AID reader (Ceipheid Benelux, Louven, Belgium). Spot forming units (SFU) per million cells for each mouse are calculated as the average value of duplicate measures after subtraction of background values obtained with in vitro unstimulated splenocytes."}, "[2]": {"test_system": "Reactive Oxygen Species (ROS)", "test": "In vivo chemiluminescence imaging of localized inflammation (L-012)", "set-up": "species or system mice", "conditions": "4 days after first MnTBAP injection, IM rAAV gene transfer, vs PBS", "method": "as §1\nIntramuscular (IM) injection: Two hours post first intraperitoneal (IP) injection of MnTBAP, mice are anesthetized by IP injection of xylazine (10 mg/kg) and ketamine (100 mg/kg) and 25 µl of a rAAV2/1 CMV SGCA HY viral preparation containing 2.5.10^9 vg is injected in the left tibialis anterior muscle (TA). Controls are injected with PBS. Mice are sacrificed 15 days after vector injection and the injected muscles are harvested to perform histologic analysis. […]\nAfter mice isofluorane anaesthesia, 100 µl of L-012 solution (15 mg/ml) (Wako, Osaka, Japan) are administered intravenously in retro-orbital sinus 4 days after first MnTBAP injection. […] Radiance (ph/s/cm^2/sr) is measured for each Region of Interest (ROI)."}, "[3]": {"test_system": "humoral response against capsid", "test": "Anti-rAAV1 IgG titers by ELISA after IV rAAV and readministration", "format": "in vivo, C57BL/6 mice", "conditions": "for specific anti-rAAV IgG: 80 mg/kg IP daily 5 days, vs control group", "method": "as §1\nIntravenous (IV) injection: Two hours post first IP injection of MnTBAP, mice are anesthetized by IP injection of xylazine (10 mg/kg) and ketamine (100 mg/kg) and 200 µl of a rAAV2/1 CMV SGCA HY viral preparation containing 2.5.10^9 vg is injected into retro orbital sinus or into tail vein. Controls are injected with PBS. Serum samples are harvested at D21 and D28 post vector injection to analyze capsid-specific humoral response.\nReadministration protocol: After the initial IV injection of rAAV2/1 CMV SGCA HY vector at D0 (two hours post first IP injection of MnTBAP) the second rAAV1 injection (2.10^9 vg of rAAV2/1 CMV mSeAP) is performed 28 days later in the left TA muscle. Mice are followed up to 93 days after readministration to analyze capsid-specific humoral response and to measure circulating mSeAP from serum samples. Mice are killed 93 days after second injection of vector. Left and right TA muscles are harvested for histological and enzymatic assay.\nrAAVl-specific serum antibody titers are evaluated by ELISA. […] Reaction is stopped with an H2SO4 solution and the optical density at 450 nm is determined using a […] (Discovery HT-R, BioServ, Thiais, France) with KC4 software. The area under the curve (AUC) values obtained from the optical densities at four dilution points are calculated for statistical analysis using GraphPad Prism software (Logi Labo, Paris, France)."}, "[4]": {"conditions": "eight days post vector injection"}},
  "data": [
    {"smiles": "O=C(O)c1ccc(-c2c3nc(c(-c4ccc(C(=O)O)cc4)c4ccc([n-]4)c(-c4ccc(C(=O)O)cc4)c4nc(c(-c5ccc(C(=O)O)cc5)c5ccc2[n-]5)C=C4)C=C3)cc1.[Mn+3]", "note": "[MnTBAP, manganese [III] tetrakis (4-benzoic acid) porphyrin]", "values": [
      {"measurement": "IFN-γ response of transgene specific CD4^+ T cells", "setting": "[1]; [4]", "result": "significantly decreased"},
      {"measurement": "IFN-γ response of transgene specific CD8^+ T cells", "setting": "[1]; [4]", "result": "no significant differences"},
      {"measurement": "IFN-γ response of transgene specific CD8^+ T cells", "setting": "[1]; fifteen days post vector injection", "result": "significantly decreased"},
      {"measurement": "Reactive Oxygen Species (ROS), average radiance of left inferior limb", "setting": "[2]", "result": "produce less Reactive Oxygen Species (ROS)"},
      {"measurement": "specific anti-rAAV IgG", "setting": "[3]; Day 21 post IV vector injection", "result": "no or significantly less specific anti-rAAV IgG"},
      {"measurement": "specific anti-rAAV IgG", "setting": "[3]; Day 28 post IV vector injection", "result": "no or significantly less specific anti-rAAV IgG"},
      {"measurement": "specific anti-rAAV IgG titer", "setting": "[3]; serum 10 days after vector readministration in TA (28 days post first injection), vs PBS", "result": "decrease of specific anti-rAAV IgG titer"}
    ]}
  ]
}
